The results in this text go back to ChEMBL document CHEMBL1201862, “PubChem BioAssay data set” (2004).

The target in assay [1] is T1, Mannose-6-phosphate isomerase (Homo sapiens, UniProt P34949).
T1 sequence (P34949 whole entry): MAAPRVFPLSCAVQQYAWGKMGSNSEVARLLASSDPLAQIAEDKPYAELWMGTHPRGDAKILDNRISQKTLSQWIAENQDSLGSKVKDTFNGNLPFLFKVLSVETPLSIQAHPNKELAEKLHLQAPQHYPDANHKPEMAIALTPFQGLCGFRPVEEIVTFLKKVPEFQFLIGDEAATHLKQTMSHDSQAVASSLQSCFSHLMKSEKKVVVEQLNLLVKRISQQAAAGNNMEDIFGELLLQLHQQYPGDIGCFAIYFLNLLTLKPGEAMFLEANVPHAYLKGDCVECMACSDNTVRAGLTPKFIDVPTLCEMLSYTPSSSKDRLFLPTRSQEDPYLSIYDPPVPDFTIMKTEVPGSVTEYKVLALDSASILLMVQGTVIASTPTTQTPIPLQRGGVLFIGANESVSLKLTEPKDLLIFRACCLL
Kind of assay: MPI inhibition at elevated mannose 6-phosphate – biochemical, fluorescence intensity, high mannose 6-phosphate, primary screen (AID 1220).

A short description of assay [2]: viability of uninfected HEp-2 cells – cell-based, HTS, cytotoxicity control for RSV inhibitor project, dose response (AID 2410). The assay is classed as functional. Conditions: human respiratory syncytial virus.
Assay [3] is described as follows: NIH-3T3 fibroblast cytotoxicity, dose response, cytotoxicity control, cell-based, fluorescence, Alamar Blue, secondary assay (AID 2327).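 Also: NIH-3T3 mouse fibroblasts cultured with fluconazole at 8 µg/mL.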 The assay is classed as functional.
Assay [4] in a line: fluconazole-exposed Candida albicans growth modulators – fluorescence, retest, confirmation (AID 2467). Format: functional, cell-based.
Another assay addresses Paired box protein Pax-8 (Homo sapiens, UniProt Q06710). Kind of assay: PAX8 transcriptional activity inhibition in RMG-I – RMG-I cells, luciferase, cherry-pick, dose response (AID 687027).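 Also: luciferase reporter driven by Pax8 target thyroperoxidase promoter measured by SteadyGlo luminescence.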 The assay is classed as functional, cell-based.
Assay [5] concerns the target T2, Heat shock factor protein 1 (Mus musculus, UniProt P38532).
T2 sequence (P38532 whole entry): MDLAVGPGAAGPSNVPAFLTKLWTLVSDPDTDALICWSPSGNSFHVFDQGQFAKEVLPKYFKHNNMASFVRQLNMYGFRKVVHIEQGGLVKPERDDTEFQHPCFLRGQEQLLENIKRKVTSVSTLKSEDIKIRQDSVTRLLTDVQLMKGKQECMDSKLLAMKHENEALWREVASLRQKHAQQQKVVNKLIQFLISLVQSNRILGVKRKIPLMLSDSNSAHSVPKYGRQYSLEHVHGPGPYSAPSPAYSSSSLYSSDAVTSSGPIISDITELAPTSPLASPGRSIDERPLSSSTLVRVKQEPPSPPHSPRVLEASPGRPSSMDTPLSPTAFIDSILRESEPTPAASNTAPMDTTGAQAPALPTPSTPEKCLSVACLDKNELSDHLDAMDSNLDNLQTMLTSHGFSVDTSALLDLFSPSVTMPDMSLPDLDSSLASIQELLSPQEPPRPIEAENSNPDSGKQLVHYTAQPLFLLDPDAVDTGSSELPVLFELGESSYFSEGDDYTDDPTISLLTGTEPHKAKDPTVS
Nature of the assay: decrease of HSF1-responsive luciferase luminescence – cell-based, NIH3T3, dose retest, confirmation (AID 2382).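 Also: NIH3T3 fibroblasts with HSF1-driven luciferase reporter stressed by proteasome inhibitor MG132; luminescence from HSF1-driven luciferase expression after 8 hours of MG132 stress.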 Format: functional.

The subject of the next assay is INS1. Nature of the assay: INS-1E survival protection against cytokine death – cell-based, luminescence, retest, dose response (AID 449756).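 Also: cell death triggered by IL-1 beta plus TNF-alpha plus IFN-gamma mixture; protective hits raise ATP signal compared with cytokine alone wells.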 Format: functional. Conditions: Rattus norvegicus.
The target in assay [6] is T3, COUP transcription factor 2 (Homo sapiens, UniProt P24468).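 Also: HEK293 cells transiently cotransfected with COUP-TFII expression vector and reporter; luciferase reporter luminescence driven by COUP-TFII from the pX2-168 reporter plasmid.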
T3 sequence (P24468 whole entry): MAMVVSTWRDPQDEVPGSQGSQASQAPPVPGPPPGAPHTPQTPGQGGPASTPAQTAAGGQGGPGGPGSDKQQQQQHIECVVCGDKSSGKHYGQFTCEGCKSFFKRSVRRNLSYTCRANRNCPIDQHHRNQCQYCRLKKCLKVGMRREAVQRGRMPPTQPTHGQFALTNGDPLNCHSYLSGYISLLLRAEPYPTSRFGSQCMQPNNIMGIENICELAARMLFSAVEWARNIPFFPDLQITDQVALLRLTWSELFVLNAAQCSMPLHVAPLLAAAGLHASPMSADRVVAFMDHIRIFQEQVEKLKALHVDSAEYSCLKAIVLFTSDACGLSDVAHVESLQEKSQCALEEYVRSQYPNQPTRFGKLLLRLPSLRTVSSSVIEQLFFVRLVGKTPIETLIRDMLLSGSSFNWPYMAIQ
Nature of the assay: Luminescence-based cell-based high throughput dose response assay to identify inhibitors of COUP-TFII (NR2F2). Format: functional.

Assay [7] in a line: HEK-293T viability loss after treatment – luminescence, T-cell screen hits, cytotoxicity control for TCR NF-kB inhibitor project, dose response (AID 489026).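 Also: cells exposed to compound about 14 hours before the viability readout.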 The assay is classed as functional, cell-based.
Another assay deals with Estrogen receptor beta (Homo sapiens, UniProt Q92731).
A further assay addresses T4, Estrogen receptor (Homo sapiens, UniProt P03372).
T4 sequence (P03372 whole entry): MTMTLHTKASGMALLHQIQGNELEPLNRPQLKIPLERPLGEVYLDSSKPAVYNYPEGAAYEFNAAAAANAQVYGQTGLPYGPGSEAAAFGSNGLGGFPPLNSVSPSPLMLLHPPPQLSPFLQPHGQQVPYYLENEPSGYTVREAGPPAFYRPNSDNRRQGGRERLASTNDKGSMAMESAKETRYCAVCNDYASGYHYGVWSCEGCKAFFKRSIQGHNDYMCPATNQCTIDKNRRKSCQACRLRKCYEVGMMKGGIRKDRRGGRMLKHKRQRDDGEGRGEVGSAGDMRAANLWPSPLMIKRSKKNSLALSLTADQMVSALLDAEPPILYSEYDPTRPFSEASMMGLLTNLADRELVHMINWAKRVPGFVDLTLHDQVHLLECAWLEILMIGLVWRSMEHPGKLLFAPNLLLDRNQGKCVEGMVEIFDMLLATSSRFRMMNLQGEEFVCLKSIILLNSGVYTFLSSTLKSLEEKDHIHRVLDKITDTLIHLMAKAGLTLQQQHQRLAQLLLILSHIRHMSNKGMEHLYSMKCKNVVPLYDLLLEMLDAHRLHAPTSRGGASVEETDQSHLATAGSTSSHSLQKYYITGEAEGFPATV

A further assay has as its target Cytochrome P450 2C9 (Homo sapiens, UniProt P11712). Conditions: Potency.
Assay [8] concerns the target T5, Oxysterols receptor LXR-beta (Homo sapiens, UniProt P55055).
T5 sequence (P55055 whole entry): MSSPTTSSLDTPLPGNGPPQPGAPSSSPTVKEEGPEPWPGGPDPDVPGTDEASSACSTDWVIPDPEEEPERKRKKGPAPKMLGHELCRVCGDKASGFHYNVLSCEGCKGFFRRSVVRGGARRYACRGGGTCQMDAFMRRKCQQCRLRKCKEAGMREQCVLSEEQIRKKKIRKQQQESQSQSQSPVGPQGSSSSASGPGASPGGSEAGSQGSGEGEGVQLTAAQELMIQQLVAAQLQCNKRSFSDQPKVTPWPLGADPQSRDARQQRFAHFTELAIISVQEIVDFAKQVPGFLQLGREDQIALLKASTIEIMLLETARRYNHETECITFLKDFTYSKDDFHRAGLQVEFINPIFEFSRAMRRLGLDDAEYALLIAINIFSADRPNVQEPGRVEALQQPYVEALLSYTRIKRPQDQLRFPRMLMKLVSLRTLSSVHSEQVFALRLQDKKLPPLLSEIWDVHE
Kind of assay: LXR agonists, Gal4 luciferase reporter, dose response, counter-screen for ssDAF-12 agonist project, cell-based, luminescence, HEK293, S. stercoralis campaign (AID 720737). The assay is classed as functional. Conditions: read-out: IC50 (the source's name).

The nature of assay [9]: Luminescence-based cell-based high throughput dose response assay to identify activators of the DAF-12 from the parasite S. stercoralis (ssDAF-12). Format: functional.
The target in assay [10] is T5, Oxysterols receptor LXR-beta. Format: functional, cell-based.
A short description of assay [11]: blockers of bursicon-stimulated LGR2 cAMP reporter – cell-based, HEK293, CRE-luciferase reporter, cherry pick, set 2, dose response (AID 743343).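 Also: transfected cells were stimulated with diluted bursicon conditioned medium after compound addition.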 The assay is classed as functional.
A short description of assay [12]: viability loss in HEK293 cells – cell-based, plate reader, cherry-picked samples, cytotoxicity control, dose response (AID 743446). The assay is classed as functional.
The nature of assay [13]: blockade of melanocortin 4 receptor signaling – cell-based, plate reader, cherry pick, counter-screen for LGR2 antagonist project, dose response (AID 743444).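 Also: transfected HEK 293 cells stimulated with alpha-MSH peptide; potency of inhibitors of the alpha-MSH evoked signal.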 The assay is classed as functional.
A short description of assay [14]: toxicity toward HepG2 liver cells – cell-based, plate reader, cherry-pick, antagonist series, cytotoxicity control, dose response (AID 743416). The assay is classed as functional.
Assay [15] in a line: reduction of Shn3 3'UTR-driven luciferase in osteoblasts – cell-based, Clone20 osteoblasts, firefly luciferase, cherry-picked, dose response (AID 624132).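 Also: firefly luciferase luminescence from reporter carrying the Shn3 3'UTR in osteoblasts.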 Format: functional.
Assay [16] is described as follows: loss of viability in HepG2 cells – cell-based, CellTiter-Glo, cherry-picked, cytotoxicity control for Shn3 inhibitor project, dose response (AID 624134). The assay is classed as functional. In general terms: In ATP-based viability assays light output follows the ATP content of the culture.
Assay [17] is described as follows: A549 cell cytotoxicity, dose response, cytotoxicity control, plate reader, cherry-pick, antagonist series (AID 743412). The assay is classed as functional, cell-based.
A short description of assay [18]: non-specific 3'UTR reporter inhibition in Clone20-Shn3RL – cell-based, Renilla luciferase, cherry-picked, counter-screen for Shn3 inhibitor project, dose response (AID 624133). The assay is classed as functional. On the technique in general: Counterscreens check selectivity or assay interference.
A short description of assay [19]: A2780 cell killing – plate reader, dry powder samples, cytotoxicity control, dose response (AID 743046). The assay is classed as functional, cell-based.
Assay [20] can be described thus: OVCAR8 cell viability loss – plate reader, dry powder samples, PAX8 project, dose response (AID 743197). The assay is classed as functional, cell-based. Conditions: OVCAR-8.

The source made the active and inactive calls.

Sequence of Cytochrome P450 2C9 (P11712 whole entry): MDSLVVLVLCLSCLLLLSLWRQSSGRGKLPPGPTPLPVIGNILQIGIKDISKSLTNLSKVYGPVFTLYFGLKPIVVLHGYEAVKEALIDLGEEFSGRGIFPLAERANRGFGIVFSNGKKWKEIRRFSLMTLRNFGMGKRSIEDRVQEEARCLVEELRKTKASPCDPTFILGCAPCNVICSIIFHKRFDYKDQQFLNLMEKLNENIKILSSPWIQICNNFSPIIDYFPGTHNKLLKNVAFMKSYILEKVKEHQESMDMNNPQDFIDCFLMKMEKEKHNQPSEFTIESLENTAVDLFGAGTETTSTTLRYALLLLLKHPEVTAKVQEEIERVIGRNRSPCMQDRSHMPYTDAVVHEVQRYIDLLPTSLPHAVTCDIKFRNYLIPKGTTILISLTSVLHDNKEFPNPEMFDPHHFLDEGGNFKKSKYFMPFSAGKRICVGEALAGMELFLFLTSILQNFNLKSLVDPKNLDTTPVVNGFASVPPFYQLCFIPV
Sequence of Paired box protein Pax-8 (Q06710 whole entry): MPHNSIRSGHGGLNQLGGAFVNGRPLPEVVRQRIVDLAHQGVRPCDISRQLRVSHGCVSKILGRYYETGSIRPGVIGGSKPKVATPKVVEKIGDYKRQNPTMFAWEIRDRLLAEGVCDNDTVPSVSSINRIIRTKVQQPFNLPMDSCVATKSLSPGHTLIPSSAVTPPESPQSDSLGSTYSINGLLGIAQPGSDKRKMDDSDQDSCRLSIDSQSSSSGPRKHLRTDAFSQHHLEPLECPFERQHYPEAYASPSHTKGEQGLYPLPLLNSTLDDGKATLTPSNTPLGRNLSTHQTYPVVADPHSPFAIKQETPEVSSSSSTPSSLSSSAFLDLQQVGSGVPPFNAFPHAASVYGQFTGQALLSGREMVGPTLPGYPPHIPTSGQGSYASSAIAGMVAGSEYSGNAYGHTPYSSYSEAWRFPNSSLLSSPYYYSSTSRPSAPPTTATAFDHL
Sequence of Estrogen receptor beta (Q92731 whole entry): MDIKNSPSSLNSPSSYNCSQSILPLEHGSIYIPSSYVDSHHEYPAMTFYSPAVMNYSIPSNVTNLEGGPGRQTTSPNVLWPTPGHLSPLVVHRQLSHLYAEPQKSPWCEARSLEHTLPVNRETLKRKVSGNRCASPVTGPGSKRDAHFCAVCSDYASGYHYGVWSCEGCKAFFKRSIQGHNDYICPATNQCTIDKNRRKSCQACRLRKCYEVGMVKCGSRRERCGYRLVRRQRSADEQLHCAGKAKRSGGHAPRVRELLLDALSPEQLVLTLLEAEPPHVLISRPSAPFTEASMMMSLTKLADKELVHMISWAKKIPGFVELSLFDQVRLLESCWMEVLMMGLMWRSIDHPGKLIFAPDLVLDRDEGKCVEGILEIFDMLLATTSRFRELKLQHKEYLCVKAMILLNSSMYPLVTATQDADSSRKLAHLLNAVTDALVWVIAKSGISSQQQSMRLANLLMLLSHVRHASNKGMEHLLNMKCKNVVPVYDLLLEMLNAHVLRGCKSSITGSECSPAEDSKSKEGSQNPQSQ

By IC50 is commonly meant the concentration that inhibits the measured activity by half. As a reminder, the CC50 is the concentration at which the toxic effect on the cells reaches its halfway point. As to `CC(C)C/N=C/c1c(O)c([N+](=O)[O-])cc2oc3c(c12)CCCC3`, the half-inhibitory concentration (IC50) in assay [1] is listed as > 50 µM (not active). Moreover, the half-maximal cytotoxic concentration (CC50) in [2] was 25.3 µM (active).
In general, AC50 refers to the midpoint of the concentration-response curve, whichever way the signal moves. On to `Cc1cccc(NCc2ccc(O)c3ncccc23)c1C`, for which the half-maximal inhibitory concentration (IC50) in [1] is given as > 50 µM (not active). Also, the EC50 in assay [3] was > 150 µM (inactive); in assay [4], > 38 µM (not active); in assay [5], > 195 µM (not active). Moreover, the AC50 on Paired box protein Pax-8 is 15 µM (active).
Regarding `Cc1nn(C)c(C)c1CN(Cc1nc(CCC(C)C)no1)C(C)C`, the AC50 with INS1 was 2.24 µM (active). Besides, the IC50 is 4.68 µM (active) in assay [6] and > 80 µM (inactive) in [7].
For `O=C(Cc1cccs1)Nc1ccccn1`, the IC50 is 16.8 µM (active) on Estrogen receptor beta and 13.4 µM (active) at Estrogen receptor.
With `CC(C)C[C@@H](CC(=O)N[C@H](CC(=O)N[C@@H]1CCCC[C@H]1C(=O)N[C@H](CC(=O)N[C@@H](CCC(=O)O)CC(=O)O)Cc1ccccc1)C(C)C)NC(=O)[C@@H]1CNCC[C@H]1N`, on Cytochrome P450 2C9, the AC50 was 31.6 µM (inconclusive).
The same measure, in the same setting: next, `CC(C)C[C@@H](CC(=O)N[C@@H](CCCN)CC(=O)N[C@@H]1CCNC[C@H]1C(=O)N[C@H](CC(=O)N[C@@H](CCC(=O)O)CC(=O)O)CC(C)C)NC(=O)[C@@H]1CNCC[C@H]1N`: 39.8 µM (inconclusive).
In the case of `Cn1cccc1C(=O)OCc1csc(-c2ccccc2)n1`, the EC50 (in assay [8]; in [10]; in the assay “cells”) was > 67.5 µM (inactive) in each case. For the same molecule, the IC50 in [9] was > 67.5 µM (inactive).
With `CC(C)c1ccc(NC(=O)Nc2nc(C(N)c3ccccc3)cs2)cc1` (centres undefined), the concentration at half-maximal activity (AC50) in [11] was 25.5 µM (active); in assay [12] it was 16 µM (active); in [13], 29 µM (active); in assay [14], 8.5 µM (active); in assay [15] it was 2.48 µM (active); in assay [16], 13.5 µM (active). Also, the results for the AC50 in [17] and in assay [18] were 7.84 µM (active) and 15.4 µM (active), respectively.
`O=C(CNC(=O)c1cccs1)OCC(=O)c1ccc(Cl)cc1`: the EC50 in assay [8] was > 67.5 µM (inactive). Moreover, in [9], the IC50 is > 67.5 µM (inactive).
As to `CC(C)C[C@@H](CC(=O)N[C@@H](CCC(=O)O)CC(=O)O)NC(=O)[C@@H]1CCCC[C@H]1NC(=O)C[C@@H](NC(=O)C[C@H](CO)NC(=O)[C@@H]1CNCC[C@H]1N)C(C)C`, the AC50 on Cytochrome P450 2C9 was 31.6 µM (inconclusive).
As for `Cc1ccc2[nH]c(-c3sc4nc(C)ccc4c3N)nc2c1`, in assay [9], the IC50 was > 67.6 µM (inactive). Moreover, the EC50 (in assay [10]; in “cells”) was > 67.5 µM (inactive) throughout.
Take `Cc1cc(-c2nc3ccccc3s2)ccc1N`: the EC50 (in assay [8]; in [10]; in “cells”) was > 67.6 µM (inactive) in each case. Besides, the IC50 in assay [9] is > 67.6 µM (inactive).
Turning to `O=C(C[C@@H]1CC[C@H]2[C@@H](COC[C@H](O)CN2C(=O)Nc2ccc(Cl)c(Cl)c2)O1)NCc1ccc(Cl)cc1`, the AC50 in assay [19] is 11.9 µM (active); in [20] it was > 70 µM (inactive); at Paired box protein Pax-8, 13.5 µM (active).
